Experimental data as given in the supplement of paper PMC10627819.

Columns and labels:
S. aureus Newman [1] = assay: fitness (endpoint OD595 vs no drug) (fraction); higher = more growth
Outline: (§1)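 Each well of a 384-well plate received 30 µl of culture at OD595 0.01, or 55 µl for S. pneumoniae. TSB, LB Lennox or CY served as media at 37 °C. OD595 was taken every 30 min for 14 h and corrected by subtracting the first reading. Fitness is the optical density at stationary-phase entry divided by the robust mean of no-drug controls, capped at 1.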

B. subtilis 168 [2] = assay: Bliss interaction score (quartile over a dose matrix) (fitness difference); higher = more antagonism (negative = synergy)
Outline: (§2)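 Each OD595 reading at entry into stationary phase was scaled to the robust mean of the untreated wells on its plate, with a ceiling of 1. These ratios define fitness, and single-drug fitness was inferred from combinations. The Bliss score compares observed fitness with the product-based expectation and is reported as quartiles across all replicate types, technical, biological and donor/recipient.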

S. aureus DSM 20231 = assay: as above
Outline: as §2

S. aureus Newman [3] = assay: as above
Outline: as §2

S. pneumoniae D39V [4] = assay: as above
Outline: as §2

S. pneumoniae D39V [5] = assay: fitness (endpoint OD595 vs no drug) (fraction); higher = more growth
Outline: as §1

B. subtilis 168 [6] = assay: as above
Outline: as §1
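Wherever Bliss interaction score (quartile over a dose matrix) is given: first quartile when negative (synergy) and third quartile when positive (antagonism).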

O=C(N[C@H](CO)[C@H](O)c1ccc([N+](=O)[O-])cc1)C(Cl)Cl [Chloramphenicol] + C/C(=C\C(=O)OCCCCCCCCC(=O)O)C[C@@H]1OC[C@H](C[C@@H]2O[C@H]2[C@@H](C)[C@H](C)O)[C@@H](O)[C@H]1O [Pseudomonic acid]
fitness, S. aureus Newman [1], one replicate
Conditions	first compound 0.75 µg/mL	first compound 1.5 µg/mL	first compound 3 µg/mL
partner 0.0313 µg/mL	0.0723	0.0644	0.0687
partner 0.0625 µg/mL	0.0337	0.0381	0.0484
partner 0.125 µg/mL	0.062	0.0655	0.0652

Conditions	Bliss interaction score
B. subtilis 168 [2]	0.0522
S. aureus DSM 20231	0.0264
S. aureus Newman [3]	0.0532
S. pneumoniae D39V [4]	0.172

O=C(N[C@H](CO)[C@H](O)c1ccc([N+](=O)[O-])cc1)C(Cl)Cl [Chloramphenicol] + CN(C)c1cc(NC(=O)CNC(C)(C)C)c(O)c2c1C[C@H]1C[C@H]3[C@H](N(C)C)C(O)=C(C(N)=O)C(=O)[C@@]3(O)C(O)=C1C2=O [Tigecycline]
fitness, S. aureus Newman [1]
Conditions	first compound 0.75 µg/mL	first compound 1.5 µg/mL	first compound 3 µg/mL
partner 0.039 µg/mL	0.789	0.509	0.216
partner 0.078 µg/mL	0.831	0.559	0.2
partner 0.156 µg/mL	0.829	0.58	0.213

Conditions	Bliss interaction score
B. subtilis 168 [2]	-0.0487
S. aureus DSM 20231	-0.0788
S. aureus Newman [3]	-0.0583
S. pneumoniae D39V [4]	-0.114

O=C(N[C@H](CO)[C@H](O)c1ccc([N+](=O)[O-])cc1)C(Cl)Cl [Chloramphenicol] + CN[C@@H]1[C@H](O[C@H]2[C@H](O[C@H]3[C@H](O)[C@@H](O)[C@H](N=C(N)N)[C@@H](O)[C@@H]3N=C(N)N)O[C@@H](C)[C@]2(O)C=O)O[C@@H](CO)[C@H](O)[C@H]1O [Streptomycin]
fitness, S. aureus Newman [1]
Conditions	first compound 0.75 µg/mL	first compound 1.5 µg/mL	first compound 3 µg/mL
partner 1 µg/mL	0.755	0.537	0.213
partner 2 µg/mL	–	0.465	0.177
partner 4 µg/mL	–	–	0.128

Conditions	Bliss interaction score
B. subtilis 168 [2]	0.144
S. aureus DSM 20231	0.0438
S. aureus Newman [3]	-0.0754
S. pneumoniae D39V [4]	-0.0647

O=C(N[C@H](CO)[C@H](O)c1ccc([N+](=O)[O-])cc1)C(Cl)Cl [Chloramphenicol] + O=C(O)c1cn(C2CC2)c2cc(N3CCNCC3)c(F)cc2c1=O [Ciprofloxacin]
fitness, S. aureus Newman [1]
Conditions	first compound 0.75 µg/mL	first compound 1.5 µg/mL	first compound 3 µg/mL
partner 0.0375 µg/mL	0.644	0.487	0.154
partner 0.075 µg/mL	0.621	0.496	0.182
partner 0.15 µg/mL	0.155	0.212	–

Conditions	Bliss interaction score
B. subtilis 168 [2]	0.161
S. aureus DSM 20231	0.0505
S. aureus Newman [3]	0.126
S. pneumoniae D39V [4]	-0.0621

CCC[C@@H]1C[C@@H](C(=O)N[C@@H]([C@H]2O[C@H](SC)[C@H](O)[C@@H](O)[C@H]2O)[C@H](C)Cl)N(C)C1 [Clindamycin] + C/C(=C\C(=O)OCCCCCCCCC(=O)O)C[C@@H]1OC[C@H](C[C@@H]2O[C@H]2[C@@H](C)[C@H](C)O)[C@@H](O)[C@H]1O [Pseudomonic acid]
fitness, S. aureus Newman [1], one replicate
Conditions	first compound 0.0312 µg/mL	first compound 0.0625 µg/mL	first compound 0.125 µg/mL
partner 0.0313 µg/mL	0.0504	0.0504	0.0456
partner 0.0625 µg/mL	0.046	0.0445	0.0496
partner 0.125 µg/mL	0.0438	0.0538	0.0533

fitness, S. pneumoniae D39V [5]
Conditions	first compound 0.0125 µg/mL	first compound 0.015 µg/mL	first compound 0.025 µg/mL	first compound 0.03 µg/mL	first compound 0.05 µg/mL	first compound 0.06 µg/mL
partner 0.03 µg/mL	0.78	0.836	0.499	0.703	0.211	–
partner 0.06 µg/mL	0.716	0.69	0.4	–	0.17	0.281
partner 0.12 µg/mL	0.237	0.326	0.119	0.229	0.0924	0.16

Conditions	Bliss interaction score
B. subtilis 168 [2]	0.0726
S. aureus DSM 20231	0.0297
S. aureus Newman [3]	0.0412
S. pneumoniae D39V [4]	-0.15

O=C(O[C@@H]1Cc2c(O)cc(O)cc2O[C@@H]1c1cc(O)c(O)c(O)c1)c1cc(O)c(O)c(O)c1 [EGCG] + C/C(=C\C(=O)OCCCCCCCCC(=O)O)C[C@@H]1OC[C@H](C[C@@H]2O[C@H]2[C@@H](C)[C@H](C)O)[C@@H](O)[C@H]1O [Pseudomonic acid]
fitness, S. aureus Newman [1], one replicate
Conditions	first compound 12.5 µg/mL	first compound 25 µg/mL	first compound 50 µg/mL
partner 0.0313 µg/mL	0.0563	0.0468	0.0316
partner 0.0625 µg/mL	0.0491	0.0391	0.0458
partner 0.125 µg/mL	0.0477	0.0401	0.0275

fitness, S. pneumoniae D39V [5]
Conditions	first compound 12.5 µg/mL	first compound 25 µg/mL	first compound 50 µg/mL
partner 0.03 µg/mL	0.879	0.953	0.926
partner 0.06 µg/mL	0.74	0.824	–
partner 0.12 µg/mL	0.494	–	0.545

Conditions	Bliss interaction score
B. subtilis 168 [2]	-0.06
S. aureus DSM 20231	-0.014
S. aureus Newman [3]	0.0163
S. pneumoniae D39V [4]	-0.0856

CCC[C@@H]1C[C@@H](C(=O)N[C@@H]([C@H]2O[C@H](SC)[C@H](O)[C@@H](O)[C@H]2O)[C@@H](C)O)N(C)C1 [Lincomycin] + CCC(C)C1C(=O)NC(=C)C(=O)NC(C(=O)NC(CSCC(C(=O)N1)NC(=O)/C(=C/C)/NC(=O)C(C(C)CC)N)C(=O)NC2C(SCC(NC(=O)CNC(=O)C3CCCN3C2=O)C(=O)NC(CCCCN)C(=O)NC4C(SCC(NC(=O)CNC(=O)C(NC(=O)C(NC(=O)C(NC(=O)CNC4=O)C)CC(C)C)CCSC)C(=O)NC(CC(=O)N)C(=O)NC(CCSC)C(=O)NC(CCCCN)C(=O)NC5C(SCC6C(=O)NC(C(=O)NC(CSC(C(C(=O)N6)NC(=O)C(NC5=O)C)C)C(=O)NC(CO)C(=O)NC(C(C)CC)C(=O)NC(CC7=CN=CN7)C(=O)NC(C(C)C)C(=O)NC(=C)C(=O)NC(CCCCN)C(=O)O)CC8=CN=CN8)C)C)C)CC(C)C [Nisin]
main component drawn
Conditions	fitness
B. subtilis 168 [6], first compound 0.1 µg/mL, partner 0.5 µg/mL	0.888
B. subtilis 168 [6], first compound 0.1 µg/mL, partner 1 µg/mL	0.873
B. subtilis 168 [6], first compound 0.1 µg/mL, partner 2 µg/mL	0.542
B. subtilis 168 [6], first compound 0.2 µg/mL, partner 0.5 µg/mL	0.866
B. subtilis 168 [6], first compound 0.2 µg/mL, partner 1 µg/mL	0.839
B. subtilis 168 [6], first compound 0.2 µg/mL, partner 2 µg/mL	0.58
B. subtilis 168 [6], first compound 0.4 µg/mL, partner 0.5 µg/mL	0.903
B. subtilis 168 [6], first compound 0.4 µg/mL, partner 1 µg/mL	0.876
B. subtilis 168 [6], first compound 0.4 µg/mL, partner 2 µg/mL	0.643
S. pneumoniae D39V [5], first compound 0.2 µg/mL, partner 0.4275 µg/mL	0.751
S. pneumoniae D39V [5], first compound 0.2 µg/mL, partner 0.855 µg/mL	0.816
S. pneumoniae D39V [5], first compound 0.2 µg/mL, partner 1.71 µg/mL	0.0439
S. pneumoniae D39V [5], first compound 0.215 µg/mL, partner 3.2 µg/mL	0.0034
S. pneumoniae D39V [5], first compound 0.215 µg/mL, partner 6.4 µg/mL	0.0021
S. pneumoniae D39V [5], first compound 0.4 µg/mL, partner 0.4275 µg/mL	0.711
S. pneumoniae D39V [5], first compound 0.4 µg/mL, partner 0.855 µg/mL	0.197
S. pneumoniae D39V [5], first compound 0.4 µg/mL, partner 1.71 µg/mL	0.03
S. pneumoniae D39V [5], first compound 0.43 µg/mL, partner 3.2 µg/mL	0.0144
S. pneumoniae D39V [5], first compound 0.43 µg/mL, partner 6.4 µg/mL	0.0124
S. pneumoniae D39V [5], first compound 0.8 µg/mL, partner 0.4275 µg/mL	0.188
S. pneumoniae D39V [5], first compound 0.8 µg/mL, partner 0.855 µg/mL	0.124
S. pneumoniae D39V [5], first compound 0.8 µg/mL, partner 1.71 µg/mL	0.0586
S. pneumoniae D39V [5], first compound 0.86 µg/mL, partner 1.6 µg/mL	0.0707
S. pneumoniae D39V [5], first compound 0.86 µg/mL, partner 3.2 µg/mL	0.0001
S. pneumoniae D39V [5], first compound 0.86 µg/mL, partner 6.4 µg/mL	0.0011

fitness, B. subtilis 168 [6], one replicate, main component drawn
Conditions	partner 1.25 µg/mL	partner 1.6 µg/mL	partner 2.5 µg/mL	partner 3.2 µg/mL	partner 4 µg/mL	partner 5 µg/mL	partner 6.4 µg/mL	partner 8 µg/mL	partner 16 µg/mL
first compound 0.1 µg/mL	–	–	–	–	0.432	–	–	0.0171	0.0218
first compound 0.2 µg/mL	–	–	–	–	0.212	–	–	0.0182	0.0151
first compound 0.4 µg/mL	0.885	0.635	0.621	0.0271	0.202	0.0364	0.0378	0.0085	0.0174
first compound 0.8 µg/mL	0.858	0.572	0.573	0.0171	–	0.065	0.035	–	–
first compound 1.6 µg/mL	0.836	0.571	0.356	0.0205	–	0.0299	0.0358	–	–

main component drawn
Conditions	Bliss interaction score
B. subtilis 168 [2]	0.0535
S. aureus DSM 20231	0.117
S. aureus Newman [3]	0.0755
S. pneumoniae D39V [4]	-0.0491

CCC[C@@H]1C[C@@H](C(=O)N[C@@H]([C@H]2O[C@H](SC)[C@H](O)[C@@H](O)[C@H]2O)[C@@H](C)O)N(C)C1 [Lincomycin] + CN(C)C(=O)C(CCN1CCC(O)(c2ccc(Cl)cc2)CC1)(c1ccccc1)c1ccccc1 [Loperamide]
Conditions	fitness
B. subtilis 168 [6], first compound 0.1 µg/mL, partner 100 µg/mL	0.0294
B. subtilis 168 [6], first compound 0.2 µg/mL, partner 100 µg/mL	0.0794
B. subtilis 168 [6], first compound 0.4 µg/mL, partner 100 µg/mL	0.0368
S. pneumoniae D39V [5], first compound 0.2 µg/mL, partner 17.14 µg/mL	0.799
S. pneumoniae D39V [5], first compound 0.2 µg/mL, partner 34.28 µg/mL	0.811
S. pneumoniae D39V [5], first compound 0.215 µg/mL, partner 20 µg/mL	0.902
S. pneumoniae D39V [5], first compound 0.215 µg/mL, partner 40 µg/mL	0.911
S. pneumoniae D39V [5], first compound 0.215 µg/mL, partner 80 µg/mL	0.897
S. pneumoniae D39V [5], first compound 0.4 µg/mL, partner 17.14 µg/mL	0.725
S. pneumoniae D39V [5], first compound 0.4 µg/mL, partner 34.28 µg/mL	0.685
S. pneumoniae D39V [5], first compound 0.43 µg/mL, partner 20 µg/mL	0.827
S. pneumoniae D39V [5], first compound 0.43 µg/mL, partner 40 µg/mL	0.83
S. pneumoniae D39V [5], first compound 0.43 µg/mL, partner 80 µg/mL	0.809
S. pneumoniae D39V [5], first compound 0.8 µg/mL, partner 17.14 µg/mL	0.535
S. pneumoniae D39V [5], first compound 0.8 µg/mL, partner 34.28 µg/mL	0.44
S. pneumoniae D39V [5], first compound 0.86 µg/mL, partner 20 µg/mL	0.599
S. pneumoniae D39V [5], first compound 0.86 µg/mL, partner 40 µg/mL	0.632
S. pneumoniae D39V [5], first compound 0.86 µg/mL, partner 80 µg/mL	0.525

S. pneumoniae D39V [5], partner 68.57 µg/mL, one replicate
Conditions	fitness
first compound 0.2 µg/mL	0.87
first compound 0.4 µg/mL	0.769
first compound 0.8 µg/mL	0.54

Conditions	Bliss interaction score
B. subtilis 168 [2]	-0.175
S. aureus DSM 20231	-0.058
S. aureus Newman [3]	-0.0788
S. pneumoniae D39V [4]	0.187
